In patent US9833497B2, “Human originated EGF domain proteins and use of the same” (CHENGDU SOURCEBIO LIMITED-LIABILITY COMPANY, priority 2013, dated 2017):

Legend:
Format in all cases: cell-based
[1] = system: E. coli DH5α; test: Antibacterial activity: MIC and growth curve against E. coli DH5α in 96-well plate; settings: minimal inhibitory concentration against E. coli DH5α; 96-well plate, 5×10^5 CFU/mL, 37° C., judged after 8 h
Outline: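 MIC taken as lowest protein level with no bacterial growth, tracked by A600 every 30 min during 37 °C, 175 rpm culture. Two-fold protein series 50-12.5 μg/mL final, triplicate wells, against 5×10^5 CFU/mL of LB-washed mid-log cells.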

[2] = system: E. coli BL21; test: MIC against Gram-negative bacteria: E. coli BL21; settings: E. coli BL21; 5×10^5 CFU/mL; 10 h cultivation at 37° C.
Outline: (§1)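 Growth inhibition by human EGF domain proteins was scored in LB liquid culture seeded at 5×10^5 CFU/mL. Protein was applied as a two-fold dilution series in triplicate, with shaking incubation at 37° C; MIC is the lowest concentration giving no growth.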

[3] = system: Pseudomonas aeruginosa; test: MIC against Gram-negative bacteria: Pseudomonas aeruginosa; settings: Pseudomonas aeruginosa; 5×10^5 CFU/mL; 10 h cultivation at 37° C.
Outline: as §1

[4] = system: Klebsiella pneumonia; test: MIC against Gram-negative bacteria: Klebsiella pneumonia; settings: Klebsiella pneumonia; 5×10^5 CFU/mL; 10 h cultivation at 37° C.
Outline: as §1

[5] = system: Enterobacter cloacae; test: MIC against Gram-negative bacteria: Enterobacter cloacae; settings: Enterobacter cloacae; 5×10^5 CFU/mL; 10 h cultivation at 37° C.
Outline: as §1

[6] = system: Aeromonas hydrophila; test: MIC against Gram-negative bacteria: Aeromonas hydrophila; settings: Aeromonas hydrophila; 5×10^5 CFU/mL; 10 h cultivation at 37° C.
Outline: as §1

[7] = system: Citrobacter diversus; test: MIC against Gram-negative bacteria: Citrobacter diversus; settings: Citrobacter diversus; 5×10^5 CFU/mL; 10 h cultivation at 37° C.
Outline: as §1

[8] = system: Moraxella catarrhalis; test: MIC against Gram-negative bacteria: Moraxella catarrhalis; settings: Moraxella catarrhalis; 5×10^5 CFU/mL; 10 h cultivation at 37° C.
Outline: as §1

[9] = system: Proteus mirabilis; test: MIC against Gram-negative bacteria: Proteus mirabilis; settings: Proteus mirabilis; 5×10^5 CFU/mL; 10 h cultivation at 37° C.
Outline: as §1

[10] = system: Proteus vulgaris; test: MIC against Gram-negative bacteria: Proteus vulgaris; settings: Proteus vulgaris; 5×10^5 CFU/mL; 10 h cultivation at 37° C.
Outline: as §1

[11] = system: Serratia marcescens; test: MIC against Gram-negative bacteria: Serratia marcescens; settings: Serratia marcescens; 5×10^5 CFU/mL; 10 h cultivation at 37° C.
Outline: as §1

PRT1408 (NEICSVDCGSHGVCMGGTCRCEEGWTGPACNQ; listed as Homo sapiens)
12.5 µg/mL: MIC against E. coli BL21 [2] | MIC against K. pneumonia [4] | MIC against A. hydrophila [6] | MIC against C. diversus [7] | MIC against M. catarrhalis [8] | MIC against P. mirabilis [9] | MIC against P. vulgaris [10]
25 µg/mL: MIC [1] | MIC against P. aeruginosa [3] | MIC against E. cloacae [5] | MIC against S. marcescens [11]

PRT1409 (RACHPRCAEHGTCKDGKCECSQGWNGEHCT; listed as Homo sapiens)
50 µg/mL: MIC against P. mirabilis [9] | MIC against S. marcescens [11]
12.5 µg/mL: MIC [1] | MIC against E. coli BL21 [2] | MIC against P. aeruginosa [3] | MIC against K. pneumonia [4] | MIC against E. cloacae [5] | MIC against A. hydrophila [6] | MIC against C. diversus [7] | MIC against M. catarrhalis [8] | MIC against P. vulgaris [10]

PRT1410 (IEGCPGLCNSNGRCTLDQNGWHCVCQPGWRGAGCD; listed as Homo sapiens)
12.5 µg/mL: MIC against E. coli BL21 [2] | MIC against A. hydrophila [6] | MIC against P. vulgaris [10] | MIC against S. marcescens [11]
25 µg/mL: MIC [1] | MIC against P. aeruginosa [3] | MIC against E. cloacae [5]
50 µg/mL: MIC against K. pneumonia [4] | MIC against C. diversus [7] | MIC against P. mirabilis [9]
100 µg/mL: MIC against M. catarrhalis [8]

PRT1411 (SVDNCPSNCYGNGDCISGTCHCFLGFLGPDCG; listed as Homo sapiens)
12.5 µg/mL: MIC [1] | MIC against P. aeruginosa [3] | MIC against E. cloacae [5] | MIC against A. hydrophila [6] | MIC against C. diversus [7] | MIC against M. catarrhalis [8] | MIC against P. mirabilis [9] | MIC against S. marcescens [11]
25 µg/mL: MIC against E. coli BL21 [2] | MIC against K. pneumonia [4] | MIC against P. vulgaris [10]

PRT1412 (RASCPVLCSGNGQYMKGRCLCHSGWKGAECD; listed as Homo sapiens)
25 µg/mL: MIC [1] | MIC against P. aeruginosa [3] | MIC against E. cloacae [5] | MIC against C. diversus [7] | MIC against P. mirabilis [9] | MIC against S. marcescens [11]
12.5 µg/mL: MIC against K. pneumonia [4] | MIC against M. catarrhalis [8]
50 µg/mL: MIC against E. coli BL21 [2] | MIC against A. hydrophila [6] | MIC against P. vulgaris [10]

PRT1413 (PTNQCIDVACSNHGTCITGTCICNPGYKGESCE; listed as Homo sapiens)
50 µg/mL: MIC against P. aeruginosa [3] | MIC against C. diversus [7] | MIC against P. mirabilis [9]
12.5 µg/mL: MIC [1] | MIC against E. cloacae [5] | MIC against M. catarrhalis [8] | MIC against S. marcescens [11]
25 µg/mL: MIC against E. coli BL21 [2] | MIC against K. pneumonia [4] | MIC against A. hydrophila [6] | MIC against P. vulgaris [10]

PRT1414 (EVDCMDPTCSGRGVCVRGECHCSVGWGGTNCE; listed as Homo sapiens)
25 µg/mL: MIC against S. marcescens [11]
50 µg/mL: MIC [1] | MIC against P. aeruginosa [3] | MIC against E. cloacae [5] | MIC against M. catarrhalis [8]
12.5 µg/mL: MIC against E. coli BL21 [2] | MIC against K. pneumonia [4] | MIC against A. hydrophila [6] | MIC against C. diversus [7] | MIC against P. mirabilis [9] | MIC against P. vulgaris [10]

PRT1415 (PRATCLDQCSGHGTFLPDTGLCSCDPSWTGHDCS; listed as Homo sapiens)
25 µg/mL: MIC [1] | MIC against P. aeruginosa [3] | MIC against E. cloacae [5] | MIC against A. hydrophila [6] | MIC against M. catarrhalis [8] | MIC against P. vulgaris [10]
12.5 µg/mL: MIC against E. coli BL21 [2] | MIC against K. pneumonia [4] | MIC against P. mirabilis [9]
50 µg/mL: MIC against C. diversus [7] | MIC against S. marcescens [11]

PRT1416 (IEICAADCGGHGVCVGGTCRCEDGWMGAACDQ; listed as Homo sapiens)
25 µg/mL: MIC [1] | MIC against P. aeruginosa [3] | MIC against E. cloacae [5] | MIC against A. hydrophila [6] | MIC against M. catarrhalis [8] | MIC against P. vulgaris [10]
12.5 µg/mL: MIC against E. coli BL21 [2] | MIC against C. diversus [7] | MIC against P. mirabilis [9] | MIC against S. marcescens [11]
50 µg/mL: MIC against K. pneumonia [4]

PRT1417 (RACHPRCAEHGTCRDGKCECSPGWNGEHCT; listed as Homo sapiens)
50 µg/mL: MIC against K. pneumonia [4] | MIC against A. hydrophila [6] | MIC against P. vulgaris [10]
12.5 µg/mL: MIC against E. coli BL21 [2] | MIC against P. aeruginosa [3] | MIC against E. cloacae [5] | MIC against M. catarrhalis [8]
25 µg/mL: MIC [1] | MIC against C. diversus [7] | MIC against P. mirabilis [9] | MIC against S. marcescens [11]

PRT1418 (IAHYLDRVVKEGCPGLCNGNGRCTLDLNGWHCVCQLGWRGAGCD; listed as Homo sapiens)
12.5 µg/mL: MIC against E. coli BL21 [2] | MIC against C. diversus [7] | MIC against P. mirabilis [9]
25 µg/mL: MIC [1] | MIC against P. aeruginosa [3] | MIC against E. cloacae [5] | MIC against A. hydrophila [6] | MIC against S. marcescens [11]
50 µg/mL: MIC against K. pneumonia [4] | MIC against M. catarrhalis [8] | MIC against P. vulgaris [10]

PRT1420 (GAWDCSVENGGCEHACNAIPGAPRCQCPAGAALQADGRSCT; listed as Homo sapiens)
25 µg/mL: MIC against A. hydrophila [6] | MIC against M. catarrhalis [8] | MIC against P. vulgaris [10]
12.5 µg/mL: MIC [1] | MIC against E. coli BL21 [2] | MIC against P. aeruginosa [3] | MIC against K. pneumonia [4] | MIC against E. cloacae [5] | MIC against C. diversus [7] | MIC against P. mirabilis [9]
50 µg/mL: MIC against S. marcescens [11]

PRT1421 (ATQSCNDLCEHFCVPNPDQPGSYSCMCETGYRLAADQHRCE; listed as Homo sapiens)
50 µg/mL: MIC against E. coli BL21 [2] | MIC against K. pneumonia [4] | MIC against A. hydrophila [6]
12.5 µg/mL: MIC [1] | MIC against P. aeruginosa [3] | MIC against E. cloacae [5] | MIC against M. catarrhalis [8] | MIC against P. vulgaris [10]
25 µg/mL: MIC against C. diversus [7] | MIC against P. mirabilis [9] | MIC against S. marcescens [11]

PRT1422 (DVDDCILEPSPCPQRCVNTQGGFECHCYPNYDLVDGECV; listed as Homo sapiens)
50 µg/mL: MIC against K. pneumonia [4] | MIC against A. hydrophila [6] | MIC against M. catarrhalis [8] | MIC against P. vulgaris [10]
12.5 µg/mL: MIC [1] | MIC against E. coli BL21 [2] | MIC against P. aeruginosa [3] | MIC against E. cloacae [5] | MIC against C. diversus [7] | MIC against P. mirabilis [9] | MIC against S. marcescens [11]

PRT1423 (PVDPCFRANCEYQCQPLNQTSYLCVCAEGFAPIPHEPHRCQ; listed as Homo sapiens)
50 µg/mL: MIC [1] | MIC against M. catarrhalis [8] | MIC against P. vulgaris [10]
25 µg/mL: MIC against C. diversus [7]
12.5 µg/mL: MIC against E. coli BL21 [2] | MIC against P. aeruginosa [3] | MIC against K. pneumonia [4] | MIC against E. cloacae [5] | MIC against A. hydrophila [6] | MIC against P. mirabilis [9] | MIC against S. marcescens [11]

PRT1424 (CQMFCNQTACPADCDPNTQASCECPEGYILDDGFICT; listed as Homo sapiens)
25 µg/mL: MIC against C. diversus [7] | MIC against P. mirabilis [9] | MIC against S. marcescens [11]
50 µg/mL: MIC [1] | MIC against P. aeruginosa [3] | MIC against E. cloacae [5] | MIC against M. catarrhalis [8]
12.5 µg/mL: MIC against E. coli BL21 [2] | MIC against K. pneumonia [4] | MIC against A. hydrophila [6] | MIC against P. vulgaris [10]
